Common to all, as to experiment: Glasshouse assay for herbicidal activity (pre- and post-emergence), percentage phytotoxicity
Holding throughout (format): in vivo

One experiment relates to Lolium perenne (LOLPE). The conditions noted are these: Lolium perenne. In short, it runs like this:
(§1)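 Pot-grown plants treated one day after sowing (pre-emergence) or at about 12 days (post-emergence); glasshouse at 24/18° C (warm) or 20/16° C (cool species) day/night, 16 h light, 65% humidity. Visual % phytotoxicity (0 = none, 100 = total damage) scored at 15 DAA post or 20 DAA pre.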

The test system of experiment [1] is Echinochloa crus-galli (ECHCG). The conditions noted are these: Echinochloa crus-galli. The essentials:
as §1

For the next experiment, the system named is Avena fatua (AVEFA). The conditions noted are these: Avena fatua. In short, it runs like this:
as §1

The test system of experiment [2] is Alopecurus myosuroides (ALOMY). The conditions noted are these: Alopecurus myosuroides. In short, it runs like this: as §1
Where [3] appears, read: post-emergence, 360 h, POST-emergence, rate 250 g/ha, visual score 15 DAA (100%=total damage, 0%=no damage), read-out: Post-emergence herbicidal activity (percentage phytotoxicity) LOLPE POST.
The mark [4] stands for this setting: pre-emergence, 480 h, PRE-emergence, rate 250 g/ha, visual score 20 DAA (100%=total damage, 0%=no damage), read-out: Pre-emergence herbicidal activity (percentage phytotoxicity) LOLPE PRE.
Setting [5] is: post-emergence, 360 h, POST-emergence, rate 250 g/ha, visual score 15 DAA (100%=total damage, 0%=no damage), read-out: Post-emergence herbicidal activity (percentage phytotoxicity) ECHCG POST.
[6] abbreviates: pre-emergence, 480 h, PRE-emergence, rate 250 g/ha, visual score 20 DAA (100%=total damage, 0%=no damage), read-out: Pre-emergence herbicidal activity (percentage phytotoxicity) ECHCG PRE.
Where [7] appears, read: post-emergence, 360 h, POST-emergence, rate 250 g/ha, visual score 15 DAA (100%=total damage, 0%=no damage), read-out: Post-emergence herbicidal activity (percentage phytotoxicity) AVEFA POST.
Where [8] appears, read: pre-emergence, 480 h, PRE-emergence, rate 250 g/ha, visual score 20 DAA (100%=total damage, 0%=no damage), read-out: Pre-emergence herbicidal activity (percentage phytotoxicity) AVEFA PRE.
The mark [9] stands for this setting: post-emergence, 360 h, POST-emergence, rate 250 g/ha, visual score 15 DAA (100%=total damage, 0%=no damage), read-out: Post-emergence herbicidal activity (percentage phytotoxicity) ALOMY POST.
Setting [10] is: pre-emergence, 480 h, PRE-emergence, rate 250 g/ha, visual score 20 DAA (100%=total damage, 0%=no damage), read-out: Pre-emergence herbicidal activity (percentage phytotoxicity) ALOMY PRE.
Setting [11] is: post-emergence, 360 h, 250 g/ha, post-emergence, 15 DAA, visual assessment (100%=total damage, 0%=no damage), read-out: Post-emergence herbicidal activity (percentage phytotoxicity) LOLPE POST.
Where [12] appears, read: pre-emergence, 480 h, 250 g/ha, pre-emergence, 20 DAA, visual assessment (100%=total damage, 0%=no damage), read-out: Pre-emergence herbicidal activity (percentage phytotoxicity) LOLPE PRE.
Where [13] appears, read: post-emergence, 360 h, 250 g/ha, post-emergence, 15 DAA, visual assessment (100%=total damage, 0%=no damage), read-out: Post-emergence herbicidal activity (percentage phytotoxicity) ECHCG POST.
[14] abbreviates: pre-emergence, 480 h, 250 g/ha, pre-emergence, 20 DAA, visual assessment (100%=total damage, 0%=no damage), read-out: Pre-emergence herbicidal activity (percentage phytotoxicity) ECHCG PRE.
The mark [15] stands for this setting: post-emergence, 360 h, 250 g/ha, post-emergence, 15 DAA, visual assessment (100%=total damage, 0%=no damage), read-out: Post-emergence herbicidal activity (percentage phytotoxicity) AVEFA POST.
The mark [16] stands for this setting: pre-emergence, 480 h, 250 g/ha, pre-emergence, 20 DAA, visual assessment (100%=total damage, 0%=no damage), read-out: Pre-emergence herbicidal activity (percentage phytotoxicity) AVEFA PRE.
The mark [17] stands for this setting: post-emergence, 360 h, 250 g/ha, post-emergence, 15 DAA, visual assessment (100%=total damage, 0%=no damage), read-out: Post-emergence herbicidal activity (percentage phytotoxicity) ALOMY POST.
[18] abbreviates: pre-emergence, 480 h, 250 g/ha, pre-emergence, 20 DAA, visual assessment (100%=total damage, 0%=no damage), read-out: Pre-emergence herbicidal activity (percentage phytotoxicity) ALOMY PRE.

Experimental findings from patent publication US10206394B2, “Herbicidal compounds” (Syngenta Participations AG, priority 2014, dated 2019) are described below.

The structures appear in SMILES notation. Read-outs that look alike come from different tables or passages of the source.

For `CCCNC(=O)CC1CC(=O)C(c2c(C)cc(-n3cc(Cl)cn3)cc2C)C1=O` (centres unmarked) [Compound B314, 2-[3-[4-(4-chloropyrazol-1-yl)-2,6-dimethyl-phenyl]-2,4-dioxo-cyclopentyl]-N-propyl-acetamide], the pest or weed control at 250 g/ha came to 90% with Lolium perenne (LOLPE) (setting [3]); 90% in the experiment on Lolium perenne (LOLPE) (setting [4]); 80% in experiment [1] (setting [5]); 100% in experiment [1] (setting [6]); 100% in the experiment on Avena fatua (AVEFA) (setting [7]); 90% with Avena fatua (AVEFA) (setting [8]). Besides, the pest or weed control at 250 g/ha in experiment [2] (setting [9]) and in experiment [2] (setting [10]) was 100% each time.
On to `C=CCC(C)(C)NC(=O)CC1CC(=O)C(c2c(C)cc(C)cc2C)C1=O` (centres unmarked) [Compound B27], for which the pest or weed control at 250 g/ha in the experiment with Lolium perenne (LOLPE) (setting [11]) was 70%; with Lolium perenne (LOLPE) (setting [12]), 60%; in experiment [1] (setting [13]), 40%; in experiment [1] (setting [14]), 60%; in the experiment on Avena fatua (AVEFA) (setting [15]), 70%; in the experiment with Avena fatua (AVEFA) (setting [16]), 20%. For the same molecule, the pest or weed control at 250 g/ha in experiment [2] (setting [17]) was found to be 70%; in experiment [2] (setting [18]), 30%.
`C#CCN(C)C(=O)CC1CC(=O)C(c2c(C)cc(C)cc2C)C1=O` (centres unmarked) [Compound B38]: the pest or weed control at 250 g/ha was found to be 90% in the experiment with Lolium perenne (LOLPE) (setting [11]); 100% with Lolium perenne (LOLPE) (setting [12]); 90% in experiment [1] (setting [13]); 100% in experiment [1] (setting [14]); 90% with Avena fatua (AVEFA) (setting [15]); 60% in the experiment on Avena fatua (AVEFA) (setting [16]). Moreover, the pest or weed control at 250 g/ha in experiment [2] (setting [17]) and in experiment [2] (setting [18]) was 70% in each case.
Take `Cc1cc(C)c(C2=C(OC(=O)C(C)(C)C)CC(CC(=O)N(C(=O)C(C)(C)C)C3(C)COC3)C2=O)c(C)c1` (centres unmarked) [Compound P14]: the pest or weed control at 250 g/ha with Lolium perenne (LOLPE) (post-emergence, 360 h, Rate 250 g/ha, post-emergence, visual assessment 15 DAA, 100%=total damage, 0%=no damage, read-out: Post-emergence herbicidal activity (percentage phytotoxicity) LOLPE POST) was 80%; in the experiment with Lolium perenne (LOLPE) (pre-emergence, 480 h, Rate 250 g/ha, pre-emergence, visual assessment 20 DAA, 100%=total damage, 0%=no damage, read-out: Pre-emergence herbicidal activity (percentage phytotoxicity) LOLPE PRE), 70%; in experiment [1] (post-emergence, 360 h, Rate 250 g/ha, post-emergence, visual assessment 15 DAA, 100%=total damage, 0%=no damage, read-out: Post-emergence herbicidal activity (percentage phytotoxicity) ECHCG POST), 70%; in experiment [1] (pre-emergence, 480 h, Rate 250 g/ha, pre-emergence, visual assessment 20 DAA, 100%=total damage, 0%=no damage, read-out: Pre-emergence herbicidal activity (percentage phytotoxicity) ECHCG PRE) it was 70%; in the experiment on Avena fatua (AVEFA) (post-emergence, 360 h, Rate 250 g/ha, post-emergence, visual assessment 15 DAA, 100%=total damage, 0%=no damage, read-out: Post-emergence herbicidal activity (percentage phytotoxicity) AVEFA POST), 80%; with Avena fatua (AVEFA) (pre-emergence, 480 h, Rate 250 g/ha, pre-emergence, visual assessment 20 DAA, 100%=total damage, 0%=no damage, read-out: Pre-emergence herbicidal activity (percentage phytotoxicity) AVEFA PRE) it was 10%. Further, the pest or weed control at 250 g/ha in experiment [2] (post-emergence, 360 h, Rate 250 g/ha, post-emergence, visual assessment 15 DAA, 100%=total damage, 0%=no damage, read-out: Post-emergence herbicidal activity (percentage phytotoxicity) ALOMY POST) was 80%; in experiment [2] (pre-emergence, 480 h, Rate 250 g/ha, pre-emergence, visual assessment 20 DAA, 100%=total damage, 0%=no damage, read-out: Pre-emergence herbicidal activity (percentage phytotoxicity) ALOMY PRE) it was 70%.
For the molecule `Cc1cc(C)c(C2C(=O)CC(CC(=O)NC(C#N)C3CC3)C2=O)c(C)c1` (centres unmarked) [Compound B58], the pest or weed control at 250 g/ha was 50% in the experiment on Lolium perenne (LOLPE) (setting [11]); 20% with Lolium perenne (LOLPE) (setting [12]); 20% in experiment [1] (setting [13]); 20% in experiment [1] (setting [14]); 70% with Avena fatua (AVEFA) (setting [15]); 40% in the experiment with Avena fatua (AVEFA) (setting [16]). The pest or weed control at 250 g/ha in experiment [2] (setting [17]) was found to be 50%; in experiment [2] (setting [18]), 10%.
With `Cc1cc(-c2ncc(F)cc2F)cc(C)c1C1C(=O)CC(CC(=O)NC2CC2F)C1=O` (centres unmarked) [Compound B289], the pest or weed control at 250 g/ha (in the experiment on Lolium perenne (LOLPE) (setting [3]); in the experiment with Lolium perenne (LOLPE) (setting [4]); in experiment [1] (setting [5]); in experiment [1] (setting [6]); with Avena fatua (AVEFA) (setting [7]); in the experiment on Avena fatua (AVEFA) (setting [8])) was 100% in each case. Further, the pest or weed control at 250 g/ha in experiment [2] (setting [9]) and in experiment [2] (setting [10]) was 100% throughout.
As to `COc1ccc(CNC(=O)CC2CC(=O)C(c3c(C)cc(-c4ccc(C#N)cn4)cc3C)C2=O)cc1` (centres unmarked) [Compound B324], the pest or weed control at 250 g/ha in the experiment on Lolium perenne (LOLPE) (setting [3]) was determined as 80%; with Lolium perenne (LOLPE) (setting [4]), 60%; in experiment [1] (setting [5]), 100%; in experiment [1] (setting [6]), 30%; in the experiment with Avena fatua (AVEFA) (setting [7]), 90%; with Avena fatua (AVEFA) (setting [8]), 0%. The results for the pest or weed control at 250 g/ha in experiment [2] (setting [9]) and in experiment [2] (setting [10]) were 70% and 30%, respectively.
